Common to all, as to format: in vivo
One test has as its system barnyardgrass (Ec). In words: Test Example 1: herbicidal effects by paddy field soil treatment.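 Also: grade of growth control; 5 = at least 90%; 4 = 70 to 90%; 3 = 50 to 70%; 2 = 30 to 50%; 1 = 10 to 30%; 0 = under 10%.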 The settings on record: 100 g of the active ingredient per 10 ares, 21st day after the application, index 0-5 of Table 47. The method in brief: (§1)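 Greenhouse pot test in flooded paddy soil, dosed at 100 g a.i. per 10 ares; effect scored on day 21.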
The next test concerns bulrush (Sc). The description is as above. The settings on record: 100 g of the active ingredient per 10 ares, 21st day after the application, index 0-5 of Table 47. The procedure, abridged: as §1;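 also: grade of growth control; 5 = at least 90%; 4 = 70 to 90%; 3 = 50 to 70%; 2 = 30 to 50%; 1 = 10 to 30%; 0 = under 10%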
In the next test the test system is monochoria (Mo). Described as above. The settings on record: 100 g of the active ingredient per 10 ares, 21st day after the application, index 0-5 of Table 47. The method in brief:
as §1

Test [1] relates to China jute (Ab). The test is described as follows: Test Example 6: crop plant selectivity by upland field soil treatment (soybean), herbicidal effects. Details: scale not given here. As to conditions: 21st day after application. The procedure, abridged: (§2)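 Pre-emergence soil treatment; sand-filled pots, seeds sown then soil-covered; greenhouse culture; visual rating of weed control and soybean injury on day 21 post-application per standard scale.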

Test [2] relates to common lambsquarters (Ch). The test is described as above. Details: scale not given here. The settings on record: 21st day after application. The procedure, abridged:
as §2

In another test the test system is green foxtail (Se). Described as above. Details: scale not given here. As to conditions: 21st day after application. The method in brief:
as §2

Test [3] concerns China jute (Ab). In words: Test Example 11: crop plant selectivity by upland field foliage treatment (corn), herbicidal effects. On the set-up: scale not given here. The settings on record: upland field foliage treatment (corn test), dose 1.6 g ai/10a, 14th day after treatment. The procedure, abridged: (§3)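 Corn and the weed species were sown together in sand-filled pots and grown in a greenhouse for 2 weeks before foliar treatment. Herbicidal effect was scored on day 14 after treatment against a graded standard scale, with corn phytotoxicity scored alongside.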

Test [4] deals with common lambsquarters (Ch). The description is as above. The settings on record: upland field foliage treatment (corn test), dose 1.6 g ai/10a, 14th day after treatment. On the set-up: scale not given here. The method in brief:
as §3

In another test the test system is pale smartweed (Po). The description is as above. On the set-up: scale not given here. The settings on record: upland field foliage treatment (corn test), dose 1.6 g ai/10a, 14th day after treatment. The method in brief: as §3
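For Herbicidal effects Mo in this document: grade of growth control; 5 = at least 90%; 4 = 70 to 90%; 3 = 50 to 70%; 2 = 30 to 50%; 1 = 10 to 30%; 0 = under 10%.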

`COCSc1cc(-c2ccc(C(F)(F)F)n(C)c2=O)c(F)cc1Cl` [1-91]: the “Herbicidal effects Ec” value in the test on barnyardgrass (Ec) came to 5. Moreover, in the test with bulrush (Sc), the “Herbicidal effects Sc” value came to 5. In addition, in the test on monochoria (Mo), the “Herbicidal effects Mo” value came to 5. The “Herbicidal effects Ab” value with China jute (Ab) [1] (dose 1.6 g ai/10a) and in the test on China jute (Ab) [1] (dose 6.3 g ai/10a) was 5 each time. For the same molecule, the “Herbicidal effects Ch” value in test [2] (dose 1.6 g ai/10a) and in [2] (dose 6.3 g ai/10a) was 5 each time. For the same molecule, the “Herbicidal effects Se” value in the test on green foxtail (Se) (dose 1.6 g ai/10a) and with green foxtail (Se) (dose 6.3 g ai/10a) was 5 throughout.

Consider `Cn1c(C(F)(F)F)ccc(-c2cc(OCC(F)(F)F)c(Cl)cc2F)c1=O` [1-155], for which, in the test with barnyardgrass (Ec), the “Herbicidal effects Ec” value is 5. For the same molecule, in the test on bulrush (Sc), the “Herbicidal effects Sc” value was found to be 5. Moreover, the “Herbicidal effects Mo” value with monochoria (Mo) stood at 5. Also, the “Herbicidal effects Ab” value in the test on China jute (Ab) [1] (dose 1.6 g ai/10a) and with China jute (Ab) [1] (dose 6.3 g ai/10a) was 5 each time. In addition, the “Herbicidal effects Ch” value in test [2] (dose 1.6 g ai/10a) and in [2] (dose 6.3 g ai/10a) was 5 in each case. Also, the “Herbicidal effects Se” value in the test with green foxtail (Se) (dose 1.6 g ai/10a) and with green foxtail (Se) (dose 6.3 g ai/10a) was 5 in each case.

`Cn1c(C(F)(F)F)ccc(-c2cc(OCC3CC3)c(Cl)cc2F)c1=O` [1-160]: in the test with barnyardgrass (Ec), the “Herbicidal effects Ec” value is reported as 5. Also, the “Herbicidal effects Sc” value in the test with bulrush (Sc) was found to be 5. The “Herbicidal effects Mo” value in the test on monochoria (Mo) is 5. Besides, in the test on China jute (Ab) [1] (dose 6.3 g ai/10a), the “Herbicidal effects Ab” value was determined as 5. Besides, the “Herbicidal effects Ch” value in [2] (dose 6.3 g ai/10a) is given as 5. The “Herbicidal effects Se” value in the test on green foxtail (Se) (dose 6.3 g ai/10a) is 5.

As for `Cn1c(C(F)(F)F)ccc(-c2cc(OCCCl)c(Cl)cc2F)c1=O` [1-171], in the test on barnyardgrass (Ec), the “Herbicidal effects Ec” value is 5. Further, in the test with bulrush (Sc), the “Herbicidal effects Sc” value was 5. Also, the “Herbicidal effects Mo” value in the test with monochoria (Mo) turned out to be 5. In addition, the “Herbicidal effects Ab” value with China jute (Ab) [1] (dose 6.3 g ai/10a) and in the test with China jute (Ab) [3] was 5 in each case. Besides, the “Herbicidal effects Ch” value in test [2] (dose 6.3 g ai/10a) and in [4] was 5 each time. Besides, the “Herbicidal effects Se” value in the test on green foxtail (Se) (dose 6.3 g ai/10a) came out at 5. The “Herbicidal effects Po” value in the test with pale smartweed (Po) stood at 5.

In the case of `C#CCOc1cc(-c2ccc(C(F)(F)F)n(N)c2=O)c(F)cc1Cl` [1-178], the “Herbicidal effects Ec” value in the test with barnyardgrass (Ec) is given as 5. In the test with bulrush (Sc), the “Herbicidal effects Sc” value came to 5. In the test on monochoria (Mo), the “Herbicidal effects Mo” value is recorded as 5. Moreover, the “Herbicidal effects Ab” value in the test with China jute (Ab) [3] is 5. In addition, the “Herbicidal effects Ch” value in test [4] came to 5. The “Herbicidal effects Po” value in the test on pale smartweed (Po) stood at 5.

Turning to `COc1cc(-c2ccc(C(F)(F)F)n(N)c2=O)c(F)cc1Cl` [1-179], in the test on barnyardgrass (Ec), the “Herbicidal effects Ec” value worked out at 5. Moreover, the “Herbicidal effects Sc” value in the test with bulrush (Sc) was determined as 5. Also, in the test on monochoria (Mo), the “Herbicidal effects Mo” value is listed as 5. Further, the “Herbicidal effects Ab” value with China jute (Ab) [3] was determined as 5. The “Herbicidal effects Ch” value in [4] is given as 5. In addition, in the test with pale smartweed (Po), the “Herbicidal effects Po” value worked out at 5.

Turning to `C#CC(O)c1cc(-c2ccc(C(F)(F)F)n(C)c2=O)c(F)cc1Cl` (stereo not drawn) [Compound 1-202], the “Herbicidal effects Ec” value in the test with barnyardgrass (Ec) is recorded as 5. The “Herbicidal effects Sc” value in the test with bulrush (Sc) worked out at 5. The “Herbicidal effects Mo” value with monochoria (Mo) was found to be 5. Moreover, the “Herbicidal effects Ab” value with China jute (Ab) [1] (dose 1.6 g ai/10a) stood at 5. Further, the “Herbicidal effects Ch” value in test [2] (dose 1.6 g ai/10a) was determined as 5. Moreover, the “Herbicidal effects Se” value in the test with green foxtail (Se) (dose 1.6 g ai/10a) is 5.

As to `C=CCN1C(=O)COc2cc(F)c(-c3ccc(C(F)(F)F)n(C)c3=O)cc21` [Compound 2-7], the “Herbicidal effects Ec” value in the test with barnyardgrass (Ec) was found to be 5. Further, in the test on bulrush (Sc), the “Herbicidal effects Sc” value amounted to 5. For the same molecule, the “Herbicidal effects Mo” value with monochoria (Mo) is given as 5. For the same molecule, the “Herbicidal effects Ab” value in the test with China jute (Ab) [1] (dose 1.6 g ai/10a) and in the test with China jute (Ab) [1] (dose 6.3 g ai/10a) was 5 throughout. In addition, the “Herbicidal effects Ch” value in test [2] (dose 1.6 g ai/10a) and in test [2] (dose 6.3 g ai/10a) was 5 each time. Further, the “Herbicidal effects Se” value in the test with green foxtail (Se) (dose 1.6 g ai/10a) and in the test on green foxtail (Se) (dose 6.3 g ai/10a) was 5 in each case.

Consider `Cc1cc2c(-c3ccc(C(F)(F)F)n(C)c3=O)c(F)cc(Cl)c2o1` [Compound 4-1], for which, in the test with barnyardgrass (Ec), the “Herbicidal effects Ec” value worked out at 5. Moreover, the “Herbicidal effects Sc” value with bulrush (Sc) is on record as 5. For the same molecule, the “Herbicidal effects Mo” value in the test with monochoria (Mo) stood at 5. Further, the “Herbicidal effects Ab” value with China jute (Ab) [1] (dose 1.6 g ai/10a) and in the test on China jute (Ab) [1] (dose 6.3 g ai/10a) was 5 throughout. Besides, the “Herbicidal effects Ch” value in [2] (dose 1.6 g ai/10a) and in [2] (dose 6.3 g ai/10a) was 5 in each case. Besides, the “Herbicidal effects Se” value in the test with green foxtail (Se) (dose 1.6 g ai/10a) and in the test with green foxtail (Se) (dose 6.3 g ai/10a) was 5 in each case.

For the molecule `CCc1cc2c(-c3ccc(C(F)(F)F)n(C)c3=O)c(F)cc(Cl)c2o1` [Compound 4-2], the “Herbicidal effects Ec” value with barnyardgrass (Ec) came out at 5. In addition, the “Herbicidal effects Sc” value in the test with bulrush (Sc) came out at 5. In the test on monochoria (Mo), the “Herbicidal effects Mo” value was found to be 5. Also, the “Herbicidal effects Ab” value with China jute (Ab) [1] (dose 1.6 g ai/10a) is listed as 5. Also, in [2] (dose 1.6 g ai/10a), the “Herbicidal effects Ch” value is recorded as 5. Moreover, the “Herbicidal effects Se” value in the test on green foxtail (Se) (dose 1.6 g ai/10a) amounted to 5.

For `C#CCn1c(=O)sc2cc(F)c(-c3ccc(C(F)(F)F)n(C)c3=O)cc21` [Compound No. 3-1, 3-[6-fluoro-3-(2-propynyl)-benzothiazolin-2-on-5-yl]-1-methyl-6-trifluoromethyl-2(1H)-pyridone], the “Herbicidal effects Ec” value with barnyardgrass (Ec) is on record as 5. Also, the “Herbicidal effects Sc” value in the test on bulrush (Sc) was 5. Moreover, in the test with monochoria (Mo), the “Herbicidal effects Mo” value turned out to be 5. Also, in the test with China jute (Ab) [1] (dose 6.3 g ai/10a), the “Herbicidal effects Ab” value is recorded as 5. The “Herbicidal effects Ch” value in [2] (dose 6.3 g ai/10a) amounted to 5. For the same molecule, the “Herbicidal effects Se” value in the test on green foxtail (Se) (dose 6.3 g ai/10a) was determined as 5.

For `Cn1cc(-c2cc(Oc3ccccc3)c(Cl)cc2F)c(=O)cc1C(F)(F)F` [Compound No. 6-19, 5-(4-chloro-2-fluoro-5-phenoxyphenyl)-1-methyl-2-trifluoromethyl-4(1H)-pyridone], in the test on barnyardgrass (Ec), the “Herbicidal effects Ec” value is 5. Further, the “Herbicidal effects Sc” value in the test with bulrush (Sc) is listed as 5. The “Herbicidal effects Mo” value in the test on monochoria (Mo) worked out at 5. The “Herbicidal effects Ab” value was 3 with China jute (Ab) [1] (dose 1.6 g ai/10a) and 5 in the test with China jute (Ab) [1] (dose 6.3 g ai/10a). The “Herbicidal effects Ch” value in test [2] (dose 1.6 g ai/10a) was 3; in [2] (dose 6.3 g ai/10a), 5. The “Herbicidal effects Se” value with green foxtail (Se) (dose 1.6 g ai/10a) and with green foxtail (Se) (dose 6.3 g ai/10a) was 5 in each case.
